From patent US6376666B1 (Nauchno-Issledovatelsky Institut Farmakologii Rossiiskoi …, priority 1994, dated 2002)

Tests used:
Format in all cases: in vivo
[1] = tested on: Balb/c mice; test: open-field test, Balb/c mice (passive type of emotional-stress reaction); set-up: key to Total activity: sum of all locomotor activity counts (crossings + rearings) in 3 min
How it was run: (§1)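 Male mice, 20-22 g, dosed i.p. in water 30 min before a 3-min open-field test after 1 min in darkness; peripheral, central, rearing and total activity plus defecations recorded; Student t-test. Anxiolysis read as Balb/c activation, sedation as C57B1/6 inhibition.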

[2] = tested on: C57B1/6 mice; test: open-field test, C57B1/6 mice (active type of emotional-stress reaction); set-up: key to Total activity: sum of all locomotor activity counts (crossings + rearings) in 3 min; settings: for Central activity (crossings) / Peripheral activity (crossings) / Total activity / Vertical activity (rearings): M ± mx
How it was run: as §1

[3] = tested on: outbred male rats; test: conflict Vogel test (punished licking of water); settings: M ± mx
Method: The study of anxiolytic activity of chosen compounds was carried out in the experiments with outbred male rats weighing 180-200 g in standard conflict Vogel' procedure [Voronina T. A. et al., in: “Phenazepam”, Naukova Dumka, Kiev, 1982, p.89, 93, 146]. The main aim of the initial step of experiments was the training of rats to develop the feeling of thirst with following experience of water licking from bottle in the experimental chamber. The animals were deprived of water for 24 hours and were placed in the test chamber for 5-min adaptation period during which they had free access to the drinking bottle. After another 24 h deprivation period the rats were placed again in the test chamber and were allowed to drink water for 5 sec. Immediately afterwards drinking attempts were punished by electric shock (0,5 mA). Under this collision of drinking and protective reflexes the extremal situation was developed. In this situation the anxiety of punishment prevented the licking process. The number of shocks received throughout a 5-min experimental session was recorded.

[4] = tested on: outbred male mice; test: rotarod test (myorelaxant activity); settings: cut-off 120 sec
Method: The myorelaxant activity of choosen compounds were studied in the outbred male mice weighing 22-25 g in rotarod test [Voronina T. A. et al., in: “Phenazepam”, Naukova Dumka, Kiev, 1982, p.145]. The animals were placed on the horizontal rotarod (D=2 cm) calibrated for a fixed speed of 4 rpm. According to the rotarod experimental protocol, normal motor coordination was defined by the ability of the animals to remain on the rotarod for an arbitrarily selected time of 120 sec.

[5] = tested on: male outbred mice; test: potentiation of sleep induced by sodium thiopental
Method: The possible hypnotic effects of choosen drugs was estimated according to method of potentiation of sleep induced by sodium thiopental. The male outbred mice weighing 20-25 g were injected i.p. with sodium thiopental at dose of 70 mg/kg. Two parameters were estimated: latent time of sleeping and duration of sleep. The used compounds were administered i.p. 30 min prior injection of sodium thiopental.

[6] = tested on: cats; test: hemodynamics and activity of intact heart in cats under anesthesia; settings: cats i.v., dose of 5 mg/kg
Method: The effects of compounds on the hemodynamics and activity of intact heart were studied in cats under anesthesia. The experiments were carried out under conditions of open chest. The phase curve of aortic blood flow was the main index of cardiac activity. The compounds were administered i.v. in physiological solution. The t-Student' test was used to estimate the statistical significance.

[7] = 0.5 mg/kg i.p. 30 min before thiopental 70 mg/kg i.p.
[8] = 1.0 mg/kg i.p. 30 min before thiopental 70 mg/kg i.p.
[9] = 5.0 mg/kg i.p. 30 min before thiopental 70 mg/kg i.p.
[10] = 10.0 mg/kg i.p. 30 min before thiopental 70 mg/kg i.p.

Cc1cc2nc(SCCN3CCOCC3)[nH]c2cc1C [XV, 2-[2-(Morpholino)ethylthio]-5,6-dimethylbenzimidazole]
Number of defecations ([1]; 0.01 mg/kg i.p., M ± mx): 0.5 ± 0.5
Peripheral activity (crossings) ([1]; 0.01 mg/kg i.p., M ± mx): 6.9 ± 1.8
Total activity ([1]; 0.01 mg/kg i.p., M ± mx): 6.9 ± 1.8
Number of defecations ([1]; 0.1 mg/kg i.p., M ± mx): 1.0 ± 0.7
Peripheral activity (crossings) ([1]; 0.1 mg/kg i.p., M ± mx): 11.1 ± 2.1
Total activity ([1]; 0.1 mg/kg i.p., M ± mx): 11.2 ± 2.1
Central activity (crossings) ([1]; 0.5 mg/kg i.p., M ± mx): 0.5 ± 0.4
Number of defecations ([1]; 0.5 mg/kg i.p., M ± mx): 1.6 ± 0.7
Peripheral activity (crossings) ([1]; 0.5 mg/kg i.p., M ± mx): 32.1 ± 4.7
Total activity ([1]; 0.5 mg/kg i.p., M ± mx): 32.6 ± 5.0
Central activity (crossings) ([1]; 1.0 mg/kg i.p., M ± mx): 5.1 ± 4.4
Number of defecations ([1]; 1.0 mg/kg i.p., M ± mx): 2.0 ± 0.9
Peripheral activity (crossings) ([1]; 1.0 mg/kg i.p., M ± mx): 37.7 ± 5.5
Total activity ([1]; 1.0 mg/kg i.p., M ± mx): 42.8 ± 9.9
Number of defecations ([1]; 5.0 mg/kg i.p., M ± mx): 3.6 ± 0.9
Peripheral activity (crossings) ([1]; 5.0 mg/kg i.p., M ± mx): 39.1 ± 8.6
Total activity ([1]; 5.0 mg/kg i.p., M ± mx): 39.1 ± 8.6
Central activity (crossings) ([1]; 10.0 mg/kg i.p., M ± mx): 0.6 ± 0.5
Peripheral activity (crossings) ([1]; 10.0 mg/kg i.p., M ± mx): 44.9 ± 13.0
Total activity ([1]; 10.0 mg/kg i.p., M ± mx): 45.9 ± 13.8
Vertical activity (rearings) ([1]; 10.0 mg/kg i.p., M ± mx): 0.4 ± 0.3 —
Number of defecations ([1]; 75.0 mg/kg i.p., M ± mx): 2.7 ± 1.3
Peripheral activity (crossings) ([1]; 75.0 mg/kg i.p., M ± mx): 8.8 ± 2.9
Total activity ([1]; 75.0 mg/kg i.p., M ± mx): 8.8 ± 2.9
Peripheral activity (crossings) ([1]; 100.0 mg/kg i.p., M ± mx): 6.5 ± 3.1
Total activity ([1]; 100.0 mg/kg i.p., M ± mx): 6.5 ± 3.1
effect on the behavior (locomotor activity) of Balb/c mice in open-field test, in words ([1]; i.p., screening): able to activate the behavior of Balb/c mice
Central activity (crossings) ([2]; 1.0 mg/kg i.p.): 39.0 ± 6.9
Peripheral activity (crossings) ([2]; 1.0 mg/kg i.p.): 87.8 ± 6.7
Total activity ([2]; 1.0 mg/kg i.p.): 138.2 ± 16.1
Vertical activity (rearings) ([2]; 1.0 mg/kg i.p.): 11.4 ± 2.5
Central activity (crossings) ([2]; 5.0 mg/kg i.p.): 36.4 ± 5.7
Peripheral activity (crossings) ([2]; 5.0 mg/kg i.p.): 87.8 ± 14.6
Total activity ([2]; 5.0 mg/kg i.p.): 139.1 ± 22.6
Vertical activity (rearings) ([2]; 5.0 mg/kg i.p.): 14.9 ± 2.3
Central activity (crossings) ([2]; 50.0 mg/kg i.p.): 35.0 ± 8.1
Peripheral activity (crossings) ([2]; 50.0 mg/kg i.p.): 54.1 ± 10.7
Total activity ([2]; 50.0 mg/kg i.p.): 95.4 ± 20.4
Vertical activity (rearings) ([2]; 50.0 mg/kg i.p.): 6.3 ± 1.6
effect on locomotor activity of C57B1/6 mice in open-field test, in words ([2]; i.p., doses that activate Balb/c mice): without any changes in locomotor activity
number of punished lickings (shocks received in 5-min session) ([3]; 1.0 mg/kg i.p.): 59.1 ± 16.7
number of punished lickings (shocks received in 5-min session) ([3]; 5.0 mg/kg i.p.): 35.3 ± 5.5
number of punished lickings (shocks received in 5-min session) ([3]; 10.0 mg/kg i.p.): 38.0 ± 9.4
number of punished lickings (shocks received in 5-min session) ([3]; 20.0 mg/kg i.p.): 73.9 ± 24.1
time of remaining on the rotarod ([4]; 0.1 mg/kg): 120 + 0 sec
time of remaining on the rotarod ([4]; 1.0 mg/kg): 120 + 0 sec
time of remaining on the rotarod ([4]; 5.0 mg/kg): 120 + 0 sec
time of remaining on the rotarod ([4]; 10.0 mg/kg): 120 + 0 sec
time of remaining on the rotarod ([4]; 20.0 mg/kg): 120 + 0 sec
duration of sleep after sodium thiopental [5, 7]: 78.4 ± 18.2 min
latent time of sleep after sodium thiopental [5, 7]: 2.5 ± 0.2 s
duration of sleep after sodium thiopental [5, 8]: 70.5 ± 13.7 min
latent time of sleep after sodium thiopental [5, 8]: 2.8 ± 0.2 s
duration of sleep after sodium thiopental [5, 9]: 56.8 ± 19.1 min
latent time of sleep after sodium thiopental [5, 9]: 2.3 ± 0.2 s
duration of sleep after sodium thiopental [5, 10]: 74.7 ± 18.7 min
latent time of sleep after sodium thiopental [5, 10]: 2.8 ± 0.3 s
effect on heart rate, in words [6]: small, but statistically significant bradycardia
